Entries after “also recorded” stand apart in the source; their conditions may differ. Like-named read-outs stand apart in the source and are kept apart here.
Experiments:
ALS patients [1] = details: cited from earlier work
ALS patients [2] = assay: Clinical outcome (ALSFRS) of ALS patients with or without continuous high-dose vitamin E; format: in vivo, human; details: ALSFRS after 1 yr of melatonin treatment
From the text: Remarkably, most of these patients (n=12) had already been on high-dose vitamin E, another antioxidant, for 10.4±2.5 months before starting the melatonin treatment.

ALS = details: cited from earlier work; for clinical efficacy in ALS: clinical setting, literature
ALS patients [3] = assay: Serum protein carbonyl determination in ALS patients (2,4-dinitrophenylhydrazine method); format: in vivo, human; details: for serum protein carbonyl level under high-dose vitamin E: ALS patients (n=12) on high-dose vitamin E for 10.4±2.5 months before starting melatonin
From the text: Protein carbonyl content of blood serum and other body fluids can be determined according to the 2,4-dinitrophenylhydrazine method described by Levine et al. (Levine Methods Enzymol 1990: 186: 464-478). The protein content can be measured according to Lowry et al. (Lowry J Biol Chem 1951: 193: 265-275) to enable a normalization of the protein carbonyl level. Other suitable methods and reagents known in the field to measure protein content and/or the content of protein carbonyls can also be used. Protein carbonyl measurements were performed in the serum of 19 consecutively admitted ALS patients (61.7±1.9 yr, 12 males, […] daily as suppositories at bedtime) and of ten healthy controls (61.2±2.0 years, five males, five females). Protein carbonyls were determined by a variant of the 2,4-dinitrophenylhydrazine method (Levine Methods Enzymol 1990: 186: 464-478). Serum was diluted 1:10 with ice-cold 5-mM pf potassium phosphate buffer, pH 7.5, containing leupeptin (0.5 μg/mL), aprotinin (0.5 μg/mL), and pepstatin A (0.7 μg/mL); 300 μL was used for a single determination. Deviations from the original procedure concerned elimination of the chromogen: protein pellets were washed three times with 1 mL of ethanol/ ethylacetate (1:1); particular attention was given to thorough resuspension (vortexing) and complete removal of the supernatant using Pasteur pipettes, and thereafter, stripes of blotting paper. Protein was measured according to Lowry et al. (Lowry J Biol Chem 1951: 193: 265-275).

Alzheimer's disease (AD) = details: in vivo; cited from earlier work
ALS mouse model = details: high-dose oral melatonin; U.S. Pub. No. 2004/0192745; cited from earlier work

Molecule: Nc1nc2ccc(OC(F)(F)F)cc2s1 [RILUZOLE®, 2-amino-6-(trifluoromethoxxy)benzothiazole]
- other important outcome measures (ALS patients [1]): lacked benefit
- side effects (ALS patients [1]): asthenia, nausea, anorexia, diarrhea, headache, and increase in liver transaminases; also recorded: enhances catabolism

Molecule: vitamin E
- clinical outcome (ALSFRS) (ALS patients [2]): did not reveal any beneficial effect
- risk of developing ALS (ALS; 10-yr prospective study with over 900,000 individuals, regular intake of vitamin E): decreased risk of developing ALS
- clinical efficacy in ALS (ALS): did not reveal any beneficial effect; also recorded: none of the antioxidative compounds tested, including vitamin E, proved to be effective
- clinical efficacy in ALS (ALS; listed as Vitamin E): ineffective in ALS treatment
- serum protein carbonyl level under high-dose vitamin E (ALS patients [3]): does not change the level of serum protein carbonyls
- serum protein carbonyl level under high-dose vitamin E (ALS patients [3]; listed as Vitamin E): does not decrease the serum protein carbonyl level
- disease progression in AD (Alzheimer's disease (AD)): slowing of disease progression

Molecule: COc1ccc2[nH]cc(CCNC(C)=O)c2c1 [melatonin]
- survival of ALS mouse model (ALS mouse model): prolongation of survival; also recorded: exhibit efficacy
- serum protein carbonyl content after melatonin treatment (ALS patients [3]; ALS patients n=19, 300 mg melatonin daily as suppositories at bedtime, mean treatment time 4.68±0.22 months, versus matched healthy controls n=10): decrease to levels of matched healthy controls; also recorded: normalized to control values; also recorded: fully reverted to control levels; also recorded: normalizes the serum protein carbonyl level to control level

— US20080206881A1, “DIAGNOSTIC MARKER FOR NEURODEGENERATIVE DISEASES” (priority 2007, published 2008)
